What was measured:
[1] = target: T1, GFP-tagged full-length STEAP4 (Homo sapiens, UniProt Q687X5); test: ferrozine ferric-reductase assay, FAD varied; assay type: biochemical; settings: 200 µM Fe3+-NTA, 75 µM NADPH, 37 °C, SEC buffer pH 5.5, digitonin
T1 construct: full-length, C-terminal GFP-Strep3 tag kept; detergent-purified (digitonin), trimer
T1 sequence (Q687X5 1-459): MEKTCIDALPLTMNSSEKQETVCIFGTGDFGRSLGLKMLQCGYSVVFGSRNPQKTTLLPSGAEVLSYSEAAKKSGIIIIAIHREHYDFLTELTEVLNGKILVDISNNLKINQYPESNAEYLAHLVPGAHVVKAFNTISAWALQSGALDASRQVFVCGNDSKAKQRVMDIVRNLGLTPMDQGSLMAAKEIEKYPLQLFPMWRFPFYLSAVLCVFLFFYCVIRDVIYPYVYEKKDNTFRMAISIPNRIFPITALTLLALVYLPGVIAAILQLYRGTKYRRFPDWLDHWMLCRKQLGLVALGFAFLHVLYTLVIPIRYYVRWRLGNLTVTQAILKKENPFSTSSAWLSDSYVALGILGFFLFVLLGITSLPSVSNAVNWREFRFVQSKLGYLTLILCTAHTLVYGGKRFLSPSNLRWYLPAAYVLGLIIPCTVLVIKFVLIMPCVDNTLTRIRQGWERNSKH

STEAP4EM [2] = target: T2, STEAP4EM (Homo sapiens, UniProt Q687X5); test: ferrozine ferric-reductase assay, FAD varied, binding curve fit; assay type: biochemical; settings: 200 µM Fe3+-NTA, 75 µM NADPH, 37 °C, SEC buffer pH 5.5, digitonin; Kd from activity curve; also seen in cryo-EM structures
T2 construct: gene STEAP4; residues K18-Q456 (deltaN17 deltaC3), C-terminal GFP-Strep3 tag removed by TEV; codon-optimised, HEK293 GNTI- cells; digitonin-solubilised homotrimer; cytosolic oxidoreductase domain plus transmembrane domain
T2 sequence (Q687X5 18-456): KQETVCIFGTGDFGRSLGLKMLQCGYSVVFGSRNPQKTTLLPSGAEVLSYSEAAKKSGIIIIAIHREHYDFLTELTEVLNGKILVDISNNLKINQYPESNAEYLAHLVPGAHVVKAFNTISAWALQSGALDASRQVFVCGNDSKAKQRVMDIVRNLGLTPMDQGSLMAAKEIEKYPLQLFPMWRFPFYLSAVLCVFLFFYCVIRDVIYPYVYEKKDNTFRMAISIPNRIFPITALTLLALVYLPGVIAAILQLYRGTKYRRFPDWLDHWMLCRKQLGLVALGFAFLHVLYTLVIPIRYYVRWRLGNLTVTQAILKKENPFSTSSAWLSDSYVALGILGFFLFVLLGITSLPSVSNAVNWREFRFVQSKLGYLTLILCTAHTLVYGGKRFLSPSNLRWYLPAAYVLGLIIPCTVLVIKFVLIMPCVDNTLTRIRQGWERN

STEAP4EM [3] = target: T2, STEAP4EM; test: ferric-reductase assay with FMN instead of FAD; assay type: biochemical; settings: FMN in place of FAD; construct (STEAP4EM or full length) not stated in main text
[4] = target: T1, GFP-tagged full-length STEAP4; test: ferrozine ferric-reductase assay, NADPH varied; assay type: biochemical; settings: 200 µM Fe3+-NTA, 10 µM FAD, 37 °C, SEC buffer pH 5.5, digitonin
[5] = target: T3, GFP-tagged full-length STEAP4 (Homo sapiens, UniProt Q687X5, S138Q); test: ferrozine ferric-reductase assay, NADPH varied; assay type: biochemical; settings: 200 µM Fe3+-NTA, 10 µM FAD, 37 °C, SEC buffer pH 5.5, digitonin
T3 construct: full-length, C-terminal GFP-Strep3 tag kept; detergent-purified (digitonin), trimer
T3 sequence (Q687X5 1-459 S138Q): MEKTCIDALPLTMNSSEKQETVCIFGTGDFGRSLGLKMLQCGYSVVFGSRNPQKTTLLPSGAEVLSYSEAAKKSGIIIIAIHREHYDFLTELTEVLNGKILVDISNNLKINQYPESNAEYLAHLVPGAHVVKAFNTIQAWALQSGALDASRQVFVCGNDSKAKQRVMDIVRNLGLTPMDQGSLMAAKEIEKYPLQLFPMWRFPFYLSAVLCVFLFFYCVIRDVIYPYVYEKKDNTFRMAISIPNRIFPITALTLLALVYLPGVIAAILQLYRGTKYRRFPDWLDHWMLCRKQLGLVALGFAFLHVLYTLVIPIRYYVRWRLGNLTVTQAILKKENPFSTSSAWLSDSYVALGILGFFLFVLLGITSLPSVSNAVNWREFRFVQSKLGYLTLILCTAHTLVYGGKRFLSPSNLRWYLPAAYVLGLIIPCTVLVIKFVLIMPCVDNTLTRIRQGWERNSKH

[6] = target: STEAP4EM (human STEAP4 residues K18-Q456, ΔN17ΔC3), non-TEV cleaved, with C-terminal GFP-Strep3 tag (human); test: SEC-MALS; non-TEV cleaved STEAP4EM on Superdex200 10/300 increase in 20 mM Tris pH 8.0, 150 mM NaCl, 0.08% digitonin, 0.75 ml/min; protein conjugate analysis to separate protein and micelle
[7] = target: the molecule itself; test: not stated; purified S138Q mutant; data in Supplementary Fig. 13
[8] = substrate: NC(=O)C1=CN([C@@H]2O[C@H](COP(=O)(O)OP(=O)(O)OC[C@H]3O[C@@H](n4cnc5c(N)ncnc54)[C@H](OP(=O)(O)O)[C@@H]3O)[C@@H](O)[C@H]2O)C=CC1; test: ferrozine ferric-reductase assay, NADPH varied; assay type: biochemical, Homo sapiens; settings: 200 µM Fe3+-NTA, 10 µM FAD, 37 °C, SEC buffer pH 5.5, digitonin, also seen in cryo-EM structure

## Cc1cc2nc3c(=O)[nH]c(=O)nc-3n(C[C@H](O)[C@H](O)[C@H](O)COP(=O)(O)OP(=O)(O)OC[C@H]3O[C@@H](n4cnc5c(N)ncnc54)[C@H](O)[C@@H]3O)c2cc1C [FAD]
[1]
  ferrozine ferric-reductase assay, FAD varied: full-length STEAP4 wildtype (WT) and S138Q mutant with varying FAD concentrations
STEAP4EM [2]
  Kd: 1200 nM

## Cc1cc2nc3c(=O)[nH]c(=O)nc-3n(C[C@H](O)[C@H](O)[C@H](O)COP(=O)(O)O)c2cc1C [FMN]
STEAP4EM [3]
  ferric-reductase assay with FMN instead of FAD: FMN may act as a cofactor in STEAP4-catalyzed iron reduction

## NC(=O)C1=CN([C@@H]2O[C@H](COP(=O)(O)OP(=O)(O)OC[C@H]3O[C@@H](n4cnc5c(N)ncnc54)[C@H](OP(=O)(O)O)[C@@H]3O)[C@@H](O)[C@H]2O)C=CC1 [NADPH]
[4]
  ferrozine ferric-reductase assay, NADPH varied: full-length STEAP4 WT and S138Q mutant with varying NADPH concentrations
[5]
  ferrozine ferric-reductase assay, NADPH varied: displayed strongly impaired ferric-reductase activity

## STEAP4EM (human STEAP4 residues K18-Q456, ΔN17ΔC3), non-TEV cleaved, with C-terminal GFP-Strep3 tag (enzyme)
[6]
  stoichiometry N: 3

B1: full-length human STEAP4 S138Q mutant (enzyme, UniProt Q687X5 1-459, looked up)
chain: MEKTCIDALPLTMNSSEKQETVCIFGTGDFGRSLGLKMLQCGYSVVFGSRNPQKTTLLPSGAEVLSYSEAAKKSGIIIIAIHREHYDFLTELTEVLNGKILVDISNNLKINQYPESNAEYLAHLVPGAHVVKAFNTIQAWALQSGALDASRQVFVCGNDSKAKQRVMDIVRNLGLTPMDQGSLMAAKEIEKYPLQLFPMWRFPFYLSAVLCVFLFFYCVIRDVIYPYVYEKKDNTFRMAISIPNRIFPITALTLLALVYLPGVIAAILQLYRGTKYRRFPDWLDHWMLCRKQLGLVALGFAFLHVLYTLVIPIRYYVRWRLGNLTVTQAILKKENPFSTSSAWLSDSYVALGILGFFLFVLLGITSLPSVSNAVNWREFRFVQSKLGYLTLILCTAHTLVYGGKRFLSPSNLRWYLPAAYVLGLIIPCTVLVIKFVLIMPCVDNTLTRIRQGWERNSKH
notes: six-transmembrane epithelial antigen of the prostate 4 (STEAP4), human, full length, with S138Q; source: detergent-purified
[7]
  stoichiometry N: 3

B2: STEAP4EM (Homo sapiens) (protein)
chain: KQETVCIFGTGDFGRSLGLKMLQCGYSVVFGSRNPQKTTLLPSGAEVLSYSEAAKKSGIIIIAIHREHYDFLTELTEVLNGKILVDISNNLKINQYPESNAEYLAHLVPGAHVVKAFNTISAWALQSGALDASRQVFVCGNDSKAKQRVMDIVRNLGLTPMDQGSLMAAKEIEKYPLQLFPMWRFPFYLSAVLCVFLFFYCVIRDVIYPYVYEKKDNTFRMAISIPNRIFPITALTLLALVYLPGVIAAILQLYRGTKYRRFPDWLDHWMLCRKQLGLVALGFAFLHVLYTLVIPIRYYVRWRLGNLTVTQAILKKENPFSTSSAWLSDSYVALGILGFFLFVLLGITSLPSVSNAVNWREFRFVQSKLGYLTLILCTAHTLVYGGKRFLSPSNLRWYLPAAYVLGLIIPCTVLVIKFVLIMPCVDNTLTRIRQGWERN
notes: residues K18-Q456 (deltaN17 deltaC3), C-terminal GFP-Strep3 tag removed by TEV; codon-optimised, HEK293 GNTI- cells; digitonin-solubilised homotrimer; cytosolic oxidoreductase domain plus transmembrane domain
[8]
  Km: 4.2 µM

Source: publication PMC6194020, “Cryo-EM structures of human STEAP4 reveal mechanism of iron(III) reduction” (Nature Communications, 2018)
